Data from EPA's ToxRefDB 2.

What was measured:
rat [1] = conditions: Combined chronic toxicity/carcinogenicity, other, Oral, Feed, dose end: 24 month, group: systemic
rat [2] = conditions: Multigenerational reproductive toxicity study, other, Oral, Feed, dose end: 2 generation
dog [3] = conditions: Chronic toxicity; beagle; Oral; Feed; dose end: 12 month; group: systemic; systemic / in life observation / body weight / body weight gain + systemic / in life observation / food consumption / food consumption + …
dog [4] = conditions: Subchronic oral toxicity in nonrodent, beagle, Feed, dose end: 3 month, group: systemic, systemic / in life observation / body weight / body weight gain + systemic / in life observation / food consumption / food consumption
rat [5] = conditions: Prenatal developmental toxicity study, wistar, Oral, [Not Specified], dose end: 20 GD
rabbit = conditions: Prenatal developmental toxicity study, Russian (Chbb:HM, SPF), Oral, Gavage/Intubation, dose end: 19 GD
mouse [6] = conditions: Subchronic oral toxicity in rodents, other, Feed, dose end: 90 day, group: systemic
rat [7] = conditions: Prenatal developmental toxicity study, other, Oral, Gavage/Intubation, dose end: 15 GD
rat [8] = conditions: Subchronic oral toxicity in rodents, other, Feed, dose end: 90 day, group: systemic
rat [9] = conditions: Subchronic oral toxicity in rodents, wistar, Feed, dose end: 90 day, group: systemic
mouse [10] = conditions: Carcinogenicity, other, Oral, Feed, dose end: 18 month, group: systemic
[11] = systemic / pathology microscopic / liver / dilatation + systemic / clinical chemistry / urea nitrogen / urea + systemic / in life …
[12] = group: offspring, systemic / in life observation / body weight / offspring (pup) weight
[13] = group: parental, systemic / organ weight / kidney / relative to body weight
[14] = group: developmental, developmental / developmental malformation / bone / unossified
[15] = group: developmental, developmental / developmental malformation / bone / unossified + developmental / developmental malformation / bone / incomplete ossification…
[16] = group: maternal, systemic / in life observation / clinical signs / piloerection + systemic / in life observation / clinical signs / salivation + systemic / …
[17] = group: developmental, developmental / developmental malformation / bone / full supernumerary
[18] = group: maternal, systemic / in life observation / body weight / body weight gain
[19] = systemic / pathology microscopic / liver / necrosis
[20] = systemic / pathology microscopic / liver / necrosis + systemic / hematology / leukocyte (wbc) count differential / leukocyte (wbc) + …
[21] = group: developmental, developmental / developmental malformation / bone / incomplete ossification + developmental / developmental malformation / bone / unossified…
[22] = group: maternal, systemic / in life observation / body weight / body weight + systemic / in life observation / body weight / body weight gain + systemic / in…
[23] = systemic / clinical chemistry / cholesterol / cholesterol + systemic / clinical chemistry / lipids / phospholipids
[24] = systemic / clinical chemistry / calcium / calcium
[25] = systemic / in life observation / body weight / body weight + systemic / in life observation / body weight / body weight gain + systemic / …
[26] = systemic / pathology microscopic / pancreas / hyperplasia
[27] = systemic / pathology microscopic / pancreas / hyperplasia + systemic / in life observation / body weight / body weight + systemic / in life …

## Cc1cc(C2CC2)nc(Nc2ccccc2)n1 [Cyprodinil]
Rat [1]; systemic / pathology microscopic / liver / dilatation
  LOAEL: 35.6 mg/kg/day
Rat [1]; systemic / pathology microscopic / liver / dilatation + systemic / clinical chemistry / urea nitrogen / urea
  LEL: 35.6 mg/kg/day
Rat [1]; [11]
  NEL: 2.7 mg/kg/day
  NOAEL: 2.7 mg/kg/day
Rat [2]; [12]
  LEL: 332 mg/kg/day
  LOAEL: 332 mg/kg/day
  NEL: 77.2 mg/kg/day
  NOAEL: 77.2 mg/kg/day
Rat [2]; group: parental, systemic / in life observation / body weight / body weight
  LOAEL: 326 mg/kg/day
Rat [2]; group: parental, systemic / in life observation / body weight / body weight + systemic / organ weight / heart / relative to body weight + systemic / organ …
  NOAEL: 81.3 mg/kg/day
Rat [2]; [13]
  LEL: 0.7 mg/kg/day
  NEL: < 0.7 mg/kg/day
Dog [3]
  LEL: 446 mg/kg/day
  LOAEL: 446 mg/kg/day
  NEL: 68 mg/kg/day
  NOAEL: 68 mg/kg/day
Dog [4]
  LEL: 560 mg/kg/day
  LOAEL: 560 mg/kg/day
  NEL: 210 mg/kg/day
  NOAEL: 210 mg/kg/day
Rat [5]; [14]
  LEL: 200 mg/kg/day
  LOAEL: 200 mg/kg/day
Rat [5]; [15]
  NEL: 20 mg/kg/day
  NOAEL: 20 mg/kg/day
Rat [5]; [16]
  LEL: 200 mg/kg/day
  LOAEL: 200 mg/kg/day
  NEL: 20 mg/kg/day
  NOAEL: 20 mg/kg/day
rabbit; [17]
  LEL: 400 mg/kg/day
  LOAEL: 400 mg/kg/day
  NEL: 150 mg/kg/day
  NOAEL: 150 mg/kg/day
rabbit; [18]
  LEL: 400 mg/kg/day
  LOAEL: 400 mg/kg/day
  NEL: 150 mg/kg/day
  NOAEL: 150 mg/kg/day
Mouse [6]; [19]
  LEL: 257 mg/kg/day
  LOAEL: 257 mg/kg/day
Mouse [6]; [20]
  NEL: 73.3 mg/kg/day
  NOAEL: 73.3 mg/kg/day
Rat [7]; [21]
  LEL: 1000 mg/kg/day
  LOAEL: 1000 mg/kg/day
  NEL: 200 mg/kg/day
  NOAEL: 200 mg/kg/day
Rat [7]; [22]
  LEL: 1000 mg/kg/day
  LOAEL: 1000 mg/kg/day
  NEL: 200 mg/kg/day
  NOAEL: 200 mg/kg/day
Rat [8]; [23]
  LEL: 3.24 mg/kg/day
  NEL: < 3.24 mg/kg/day
Rat [8]; systemic / pathology microscopic / kidney / lesion(s) (nos)
  LOAEL: 18.9 mg/kg/day
Rat [8]; systemic / pathology microscopic / kidney / lesion(s) (nos) + systemic / clinical chemistry / albumin / albumin + systemic / clinical …
  NOAEL: 3.14 mg/kg/day
Rat [9]; [24]
  LEL: 3.52 mg/kg/day
  NEL: < 3.52 mg/kg/day
Rat [9]; [25]
  LOAEL: 131 mg/kg/day
  NOAEL: 17.8 mg/kg/day
Mouse [10]; [26]
  LEL: 212 mg/kg/day
  LOAEL: 212 mg/kg/day
Mouse [10]; [27]
  NEL: 16.1 mg/kg/day
  NOAEL: 16.1 mg/kg/day
